One test concerns the target T1, PKC epsilon (Homo sapiens, UniProt Q02156).
T1 construct: purchased Invitrogen P2282
T1 sequence (Q02156 1-737): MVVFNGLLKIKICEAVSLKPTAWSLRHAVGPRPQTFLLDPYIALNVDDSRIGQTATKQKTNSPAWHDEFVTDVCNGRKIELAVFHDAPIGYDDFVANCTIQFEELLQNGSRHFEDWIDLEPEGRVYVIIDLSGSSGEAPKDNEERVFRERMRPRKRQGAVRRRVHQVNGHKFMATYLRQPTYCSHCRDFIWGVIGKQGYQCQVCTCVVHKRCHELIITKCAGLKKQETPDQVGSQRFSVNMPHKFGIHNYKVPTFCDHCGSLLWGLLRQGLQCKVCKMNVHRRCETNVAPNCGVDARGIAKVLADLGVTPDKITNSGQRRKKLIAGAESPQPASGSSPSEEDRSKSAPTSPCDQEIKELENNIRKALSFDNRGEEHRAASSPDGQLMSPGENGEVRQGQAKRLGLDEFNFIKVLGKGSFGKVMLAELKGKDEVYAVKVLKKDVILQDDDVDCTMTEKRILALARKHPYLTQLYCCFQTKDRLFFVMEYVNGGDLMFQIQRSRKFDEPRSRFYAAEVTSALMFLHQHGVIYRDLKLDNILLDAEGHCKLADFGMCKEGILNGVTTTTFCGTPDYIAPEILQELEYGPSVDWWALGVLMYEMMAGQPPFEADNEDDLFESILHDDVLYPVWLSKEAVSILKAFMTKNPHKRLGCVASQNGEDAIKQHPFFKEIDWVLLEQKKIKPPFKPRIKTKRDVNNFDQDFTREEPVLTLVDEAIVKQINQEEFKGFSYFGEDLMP
Kind of test: Biochemical assay for PKC epsilon (fluorescence polarization, Protein Kinase C Assay Kit, Red). As to conditions: Table 2, compounds of Formula XIII; read-out: IC50 μM PKCε. The essentials:
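Read-out was fluorescence-polarization competition between phosphorylated substrate and a rhodamine PKC tracer for an anti-phosphoserine antibody, added with EDTA stop after an 80 min room-temperature kinase reaction with ATP and protein substrate (Mg2+/Ca2+ buffer). Enzyme (10 ng/ml final) was preincubated with compound for 30 min.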

Another test addresses T2, human ROCKα/ROCKII mix (Homo sapiens, UniProt O75116).
T2 construct: purchased Upstate Biotechnology 14-451
Kind of test: Biochemical assay for ROCK (fluorescence polarization, ROCK IMAP Kit). Conditions: Table 2, compounds of Formula XIII.

T2 sequence (O75116 11-552 limits assumed): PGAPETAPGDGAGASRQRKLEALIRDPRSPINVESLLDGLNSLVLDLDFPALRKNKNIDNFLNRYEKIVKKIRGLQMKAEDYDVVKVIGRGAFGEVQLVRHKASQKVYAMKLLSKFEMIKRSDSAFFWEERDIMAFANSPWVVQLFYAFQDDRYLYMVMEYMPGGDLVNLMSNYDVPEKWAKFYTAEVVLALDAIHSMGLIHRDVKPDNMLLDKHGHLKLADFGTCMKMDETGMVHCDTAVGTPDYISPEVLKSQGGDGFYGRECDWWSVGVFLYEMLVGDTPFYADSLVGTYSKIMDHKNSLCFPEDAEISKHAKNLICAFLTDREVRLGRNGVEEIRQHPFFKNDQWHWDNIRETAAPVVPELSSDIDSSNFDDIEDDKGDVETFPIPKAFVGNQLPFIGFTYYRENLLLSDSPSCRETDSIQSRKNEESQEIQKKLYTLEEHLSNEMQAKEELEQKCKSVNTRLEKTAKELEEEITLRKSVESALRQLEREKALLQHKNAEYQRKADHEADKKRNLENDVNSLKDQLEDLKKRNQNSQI

In the case of `NC(CNC(=O)c1cccc(S(=O)(=O)Nc2ccccc2)c1)c1ccc(C(=O)Nc2ccncc2)cc1` (centres unmarked) [Compound 99, 4-[1-amino-2-(3-phenylsulfamoyl-benzoylamino)-ethyl]-N-pyridin-4-yl-benzamide], the IC50 at PKC epsilon and on human ROCKα/ROCKII mix was 0.5 to 5 µM each time.

For `NC(CNC(=O)c1ccc(C(=O)c2ccccc2)cc1)c1ccc(C(=O)Nc2ccncc2)cc1` (centres unmarked) [Compound 100, 4-[1-amino-2-(4-benzoyl-benzoylamino)-ethyl]-N-pyridin-4-yl-benzamide], the results for the IC50 at PKC epsilon and on human ROCKα/ROCKII mix were 5 to 50 µM and 0.5 to 5 µM, respectively.

As to `NC(CNC(=O)c1cccc(Cn2cccn2)c1)c1ccc(C(=O)Nc2ccncc2)cc1` (centres unmarked) [Compound 103, 4-{1-amino-2-[(3-pyrazol-1ylmethyl)-benzoylamino]-ethyl}-N-pyridin-4-yl-benzamide], the IC50 at PKC epsilon and on human ROCKα/ROCKII mix was 0.5 to 5 µM in each case.

For `NC(CNC(=O)c1ccncc1)c1ccc(C(=O)Nc2ccncc2)cc1` (centres unmarked) [Compound 104, N-{2-Amino-2-[4-(pyridin-4-ylcarbamoyl)-phenyl]-ethyl}-isonicotinamide], the 50% inhibitory concentration (IC50) at PKC epsilon was 5 to 50 µM; against human ROCKα/ROCKII mix it was 0.5 to 5 µM.

Take `NC(CNC(=O)c1ccccn1)c1ccc(C(=O)Nc2ccncc2)cc1` (centres unmarked) [Compound 105, Pyridine-2-carboxylic acid {2-amino-2-[4-(pyridin-4-ylcarbamoyl)-phenyl]-ethyl}-amide]: the concentration for half-maximal inhibition (IC50) at PKC epsilon is 5 to 50 µM; against human ROCKα/ROCKII mix it was 0.5 to 5 µM.

Turning to `NC(CNC(=O)c1cccnc1)c1ccc(C(=O)Nc2ccncc2)cc1` (centres unmarked) [Compound 106, N-{2-Amino-2-[4-(pyridin-4-ylcarbamoyl)-phenyl]-ethyl}-nicotinamide], the IC50 on PKC epsilon and against human ROCKα/ROCKII mix was 0.5 to 5 µM throughout.

For `NC(CNC(=O)c1cnccn1)c1ccc(C(=O)Nc2ccncc2)cc1` (centres unmarked) [Compound 108, Pyrazine-2-carboxylic acid {2-amino-2-[4-(pyridin-4-ylcarbamoyl)-phenyl]-ethyl}-amide], the values for the IC50 at PKC epsilon and against human ROCKα/ROCKII mix were 5 to 50 µM and 0.5 to 5 µM, respectively.

For the compound `NC(CNC(=O)c1ccc(=O)[nH]n1)c1ccc(C(=O)Nc2ccncc2)cc1` (centres unmarked) [Compound 109, 6-Oxo-1,6-dihydro-pyridazine-3-carboxylic acid {2-amino-2-[4-(pyridin-4-ylcarbamoyl)-phenyl]-ethyl}-amide], the half-maximal inhibitory concentration (IC50) is 5 to 50 µM at PKC epsilon and 0.5 to 5 µM at human ROCKα/ROCKII mix.

Turning to `NC(CNC(=O)c1nccc2ccccc12)c1ccc(C(=O)Nc2ccncc2)cc1` (centres unmarked) [Compound 110, Isoquinoline-1-carboxylic acid {2-amino-2-[4-(pyridin-4-ylcarbamoyl)-phenyl]-ethyl}-amide], the concentration for half-maximal inhibition (IC50) on PKC epsilon and against human ROCKα/ROCKII mix was 0.5 to 5 µM in each case.

Consider `NC(CNC(=O)c1ccnc2ccccc12)c1ccc(C(=O)Nc2ccncc2)cc1` (centres unmarked) [Compound 111, Quinoline-4-carboxylic acid {2-amino-2-[4-(pyridin-4-ylcarbamoyl)-phenyl]-ethyl}-amide], for which the half-maximal inhibitory concentration (IC50) on PKC epsilon and against human ROCKα/ROCKII mix was 0.5 to 5 µM throughout.

On to `NC(CNC(=O)c1cnnc2ccccc12)c1ccc(C(=O)Nc2ccncc2)cc1` (centres unmarked) [Compound 113, Cinnoline-4-carboxylic acid {2-amino-2-[4-(pyridin-4-ylcarbamoyl)-phenyl]-ethyl}-amide], for which the half-maximal inhibitory concentration (IC50) on PKC epsilon and against human ROCKα/ROCKII mix was 0.5 to 5 µM each time.

With `NC(CNC(=O)c1ccc2ncccc2c1)c1ccc(C(=O)Nc2ccncc2)cc1` (centres unmarked) [Compound 114, Quinoline-6-carboxylic acid {2-amino-2-[4-(pyridin-4-ylcarbamoyl)-phenyl]-ethyl}-amide], the IC50 lay in the range of 5 to 50 µM at PKC epsilon and 0.5 to 5 µM against human ROCKα/ROCKII mix.

Regarding `NC(CNC(=O)c1ccsc1)c1ccc(C(=O)Nc2ccncc2)cc1` (centres unmarked) [Compound 115, Thiophene-3-carboxylic acid {2-amino-2-[4-(pyridin-4-ylcarbamoyl)-phenyl]-ethyl}-amide], the values for the IC50 on PKC epsilon and at human ROCKα/ROCKII mix were 0.5 to 5 µM and 0.05 to 0.5 µM, respectively.

As to `NC(CNC(=O)c1cccs1)c1ccc(C(=O)Nc2ccncc2)cc1` (centres unmarked) [Compound 116, Thiophene-2-carboxylic acid {2-amino-2-[4-(pyridin-4-ylcarbamoyl)-phenyl]-ethyl}-amide], the IC50 at PKC epsilon and on human ROCKα/ROCKII mix was 0.05 to 0.5 µM in each case.

Regarding `Cc1ccc(C(=O)NCC(N)c2ccc(C(=O)Nc3ccncc3)cc2)s1` (centres unmarked) [Compound 117, 5-Methyl-thiophene-2-carboxylic acid {2-amino-2-[4-(pyridin-4-ylcarbamoyl)-phenyl]-ethyl}-amide], the IC50 on PKC epsilon and against human ROCKα/ROCKII mix was 0.5 to 5 µM in each case.

As for `CC(=NOC(C)(C)C)c1ccc(C(=O)NCC(N)c2ccc(C(=O)Nc3ccncc3)cc2)s1` (centres unmarked) [Compound 118, 5-(1-tert-Butoxyimino-ethyl)-thiophene-2-carboxylic acid {2-amino-2-[4-(pyridin-4-ylcarbamoyl)-phenyl]-ethyl}-amide], the concentration for half-maximal inhibition (IC50) was 5 to 50 µM on PKC epsilon and 0.5 to 5 µM against human ROCKα/ROCKII mix.

In the case of `NC(CNC(=O)c1ccoc1)c1ccc(C(=O)Nc2ccncc2)cc1` (centres unmarked) [Compound 119, Furan-3-carboxylic acid {2-amino-2-[4-(pyridin-4-ylcarbamoyl)-phenyl]-ethyl}-amide], the IC50 on PKC epsilon is 0.5 to 5 µM; at human ROCKα/ROCKII mix, 0.05 to 0.5 µM.

For the compound `NC(CNC(=O)c1ccc([N+](=O)[O-])o1)c1ccc(C(=O)Nc2ccncc2)cc1` (centres unmarked) [Compound 120, 5-Nitro-furan-2-carboxylic acid {2-amino-2-[4-(pyridin-4-ylcarbamoyl)-phenyl]-ethyl}-amide], the IC50 on PKC epsilon and at human ROCKα/ROCKII mix was 0.5 to 5 µM each time.

In the case of `Cn1cccc1C(=O)NCC(N)c1ccc(C(=O)Nc2ccncc2)cc1` (centres unmarked) [Compound 121, 1-Methyl-1H-pyrrole-2-carboxylic acid {2-amino-2-[4-(pyridin-4-ylcarbamoyl)-phenyl]-ethyl}-amide], the IC50 at PKC epsilon and at human ROCKα/ROCKII mix was 0.5 to 5 µM each time.

In the case of `NC(CNC(=O)c1c[nH]cn1)c1ccc(C(=O)Nc2ccncc2)cc1` (centres unmarked) [Compound 122, 1H-Imidazole-4-carboxylic acid {2-amino-2-[4-(pyridin-4-ylcarbamoyl)-phenyl]-ethyl}-amide], the IC50 on PKC epsilon fell in the range of 5 to 50 µM; on human ROCKα/ROCKII mix, 0.5 to 5 µM.

With `Nc1c(C(=O)NCC(N)c2ccc(C(=O)Nc3ccncc3)cc2)cnn1-c1ccc(F)cc1` (centres unmarked) [Compound 123, 5-Amino-1-(4-fluorophenyl)-1H-pyrazole-4-carboxylic acid {2-amino-2-[4-(pyridin-4-ylcarbamoyl)-phenyl]-ethyl}-amide], the IC50 at PKC epsilon was 5 to 50 µM; against human ROCKα/ROCKII mix, 0.5 to 5 µM.

Turning to `NC(CNC(=O)c1csc(-c2ccccc2)n1)c1ccc(C(=O)Nc2ccncc2)cc1` (centres unmarked) [Compound 124, 2-Phenyl-thiazole-4-carboxylic acid {2-amino-2-[4-(pyridin-4-ylcarbamoyl)-phenyl]-ethyl}-amide], the values for the IC50 on PKC epsilon and against human ROCKα/ROCKII mix were 5 to 50 µM and 0.5 to 5 µM, respectively.

Consider `NC(CNC(=O)c1csc(Nc2ccc(F)cc2)n1)c1ccc(C(=O)Nc2ccncc2)cc1` (centres unmarked) [Compound 125, 2-(4-Fluoro-phenylamino)-thiazole-4-carboxylic acid {2-amino-2-[4-(pyridin-4-ylcarbamoyl)phenyl]-ethyl}-amide], for which the half-maximal inhibitory concentration (IC50) at PKC epsilon and against human ROCKα/ROCKII mix was 0.5 to 5 µM in each case.

With `Cc1nc(-c2ccccc2)sc1C(=O)NCC(N)c1ccc(C(=O)Nc2ccncc2)cc1` (centres unmarked) [Compound 126, 4-Methyl-2-Phenyl-thiazole-5-carboxylic acid {2-amino-2-[4-(pyridin-4-ylcarbamoyl)-phenyl]-ethyl}-amide], the IC50 was in the range of 5 to 50 µM on PKC epsilon and 0.5 to 5 µM against human ROCKα/ROCKII mix.

As to `NC(CNC(=O)c1ccc2[nH]nnc2c1)c1ccc(C(=O)Nc2ccncc2)cc1` (centres unmarked) [Compound 127, 1H-Benzotriazole-5-carboxylic acid {2-amino-2-[4-(pyridin-4-ylcarbamoyl)-phenyl]-ethyl}-amide], the 50% inhibitory concentration (IC50) on PKC epsilon was 5 to 50 µM; against human ROCKα/ROCKII mix, 0.5 to 5 µM.

Consider `COc1ccc2[nH]c(C(=O)NCC(N)c3ccc(C(=O)Nc4ccncc4)cc3)cc2c1` (centres unmarked) [Compound 128, 5-Methoxy-1H-indole-2-carboxylic acid {2-amino-2-[4-(pyridin-4-ylcarbamoyl)-phenyl]-ethyl}-amide], for which the concentration for half-maximal inhibition (IC50) fell in the range of 5 to 50 µM on PKC epsilon and 0.5 to 5 µM against human ROCKα/ROCKII mix.

`NC(CNC(=O)c1cc2cc(F)ccc2[nH]1)c1ccc(C(=O)Nc2ccncc2)cc1` (centres unmarked) [Compound 129, 5-Fluoro-1H-indole-2-carboxylic acid {2-amino-2-[4-(pyridin-4-ylcarbamoyl)-phenyl]-ethyl}-amide]: the half-inhibitory concentration (IC50) lay within 5 to 50 µM at PKC epsilon and 0.5 to 5 µM against human ROCKα/ROCKII mix.

Regarding `NC(CNC(=O)c1cc2ccccc2[nH]1)c1ccc(C(=O)Nc2ccncc2)cc1` (centres unmarked) [Compound 130, 1H-Indole-2-carboxylic acid {2-amino-2-[4-(pyridin-4-ylcarbamoyl)-phenyl]-ethyl}-amide], the IC50 on PKC epsilon was 5 to 50 µM; against human ROCKα/ROCKII mix, 0.5 to 5 µM.

Values taken from patent US20100168102A9, “Amide Derivatives as Kinase Inhibitors” (Devgen NV, priority 2005, published 2010).
